Test results published in patent publication US20230226074A1, “METHODS OF USE FOR PYRIMIDINES AS FERROPORTIN INHIBITORS” (Global Blood Therapeutics, Inc., priority 2020, published 2023).

Target: T1, human ferroportin (Homo sapiens, UniProt Q9NP59)
T1 construct: luciferase reporter (probably NanoLuc, inferred from the Nano-Glo Luciferase Assay System read-out); expressed in transfected cells; host or cells: CHO cells, stably transfected, expression induced with doxycycline
T1 sequence (Q9NP59 1-571): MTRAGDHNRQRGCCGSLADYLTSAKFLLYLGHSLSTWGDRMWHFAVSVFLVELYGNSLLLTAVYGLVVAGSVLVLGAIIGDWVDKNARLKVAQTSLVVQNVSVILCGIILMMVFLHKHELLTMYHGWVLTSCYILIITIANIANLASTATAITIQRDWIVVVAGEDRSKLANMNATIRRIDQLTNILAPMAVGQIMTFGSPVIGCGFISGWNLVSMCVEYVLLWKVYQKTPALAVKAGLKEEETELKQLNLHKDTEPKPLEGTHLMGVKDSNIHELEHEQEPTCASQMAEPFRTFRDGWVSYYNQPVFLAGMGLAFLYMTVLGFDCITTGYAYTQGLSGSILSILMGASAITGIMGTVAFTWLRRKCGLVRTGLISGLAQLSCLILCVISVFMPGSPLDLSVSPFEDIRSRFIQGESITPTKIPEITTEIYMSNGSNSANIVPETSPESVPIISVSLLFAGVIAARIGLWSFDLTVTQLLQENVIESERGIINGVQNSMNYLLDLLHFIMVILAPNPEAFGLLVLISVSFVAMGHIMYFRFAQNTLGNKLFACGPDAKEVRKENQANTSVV
Assay: In-vitro ferroportin internalization assay (luciferase reporter)
Format: cell-based
Settings: average pEC50; stably-transfected CHO cell line expressing human ferroportin tagged to a luciferase reporter; 6 h incubation with test compound
Method: The protocol for this assay is generally as described in WO2018/128828, incorporated herein by reference in its entirety. Functional internalization of ferroportin protein was measured using a stably-transfected CHO cell line expressing the human ferroportin tagged to a luciferase reporter. Cells were plated for 24 h in the presence of ferric ammonium citrate (FAC). Ferroportin protein expression was induced with doxycycline for 24 h. The next day, the compounds were added. Test compounds were dissolved in DMSO. Cells were incubated with the test compounds for 6 h, and subsequently luciferase activity was measured using the Nano-Glo Luciferase Assay System and Glomax (Promega, Madison, Wis.). The average pEC50 was determined for the test compounds.

Compound	pEC50
CCc1cc(NCCNC(=O)NC2CCCCC2)nc(-c2ccccn2)n1 [Compound 234, 1-cyclohexyl-3-(2-{[6-ethyl-2-(pyridin-2-yl)pyrimidin-4-yl]amino}ethyl)urea]	5.4
COc1ccc(NC(=O)CN(C)c2nc(-c3ccccn3)nc3sc(C)c(C)c23)cc1 [Compound 181, 2-{[5,6-dimethyl-2-(pyridin-2-yl)thieno[2,3-d]pyrimidin-4-yl](methyl)amino}-N-(4-methoxyphenyl)acetamide]	7.2
CC(C#N)CN(C)c1nc(-c2ccccn2)nc2sc(-c3ccccc3)cc12 (centres unmarked) [Compound 201, 2-methyl-3-{methyl[6-phenyl-2-(pyridin-2-yl)thieno[2,3-d]pyrimidin-4-yl]amino}propanenitrile]	6
Cc1sc2nc(-c3ccccn3)nc(NCCCO)c2c1-c1ccccc1 [Compound 192, 3-{[6-methyl-5-phenyl-2-(pyridin-2-yl)thieno[2,3-d]pyrimidin-4-yl]amino}propan-1-ol]	5.9
COc1ccnc(-c2nc3c(c(N(C)CC(=O)NC(C)(C)CO)n2)CCC3)c1 [Compound 136, N-(1-hydroxy-2-methylpropan-2-yl)-2-{[2-(4-methoxypyridin-2-yl)-5H,6H,7H-cyclopenta[d]pyrimidin-4-yl](methyl)amino}acetamide]	7.6
Cc1sc2nc(-c3ccccn3)nc(NCCNc3ccccn3)c2c1C [Compound 243, N2-[5,6-dimethyl-2-(pyridin-2-yl)thieno[2,3-d]pyrimidin-4-yl]-N1-(pyridin-2-yl)ethane-1,2-diamine]	6.4
Cc1sc2nc(-c3ccccn3)nc(N(C)CC(C)O)c2c1-c1ccccc1 (centres unmarked) [Compound 197, 1-{methyl[6-methyl-5-phenyl-2-(pyridin-2-yl)thieno[2,3-d]pyrimidin-4-yl]amino}propan-2-ol]	6.3
Cc1cc(NCCC(=O)N2CCCCCC2)nc(-c2ccccn2)n1 [Compound 232, 1-(azepan-1-yl)-3-{[6-methyl-2-(pyridin-2-yl)pyrimidin-4-yl]amino}propan-1-one]	5.5
CC1CCN(c2nc(-c3ccccn3)nc3c2CCC3)C1 (centres unmarked) [Compound 188, 2-[4-(3-methylpyrrolidin-1-yl)-5H,6H,7H-cyclopenta[d]pyrimidin-2-yl]pyridine]	5.7
Cc1sc2nc(-c3ccccn3)nc(N(C)CCN3CCCC3=O)c2c1C [Compound 180, 1-(2-{[5,6-dimethyl-2-(pyridin-2-yl)thieno[2,3-d]pyrimidin-4-yl](methyl)amino}ethyl)pyrrolidin-2-one]	6.1
CCc1cc(NCCN2CCN(CC)CC2)nc(-c2ccccn2)n1 [Compound 230, 6-ethyl-N-[2-(4-ethylpiperazin-1-yl)ethyl]-2-(pyridin-2-yl)pyrimidin-4-amine]	5.3
CN(c1nc(-c2ccccn2)nc2c1CCC2)C1CCc2ccccc21 (centres unmarked) [Compound 185, N-(2,3-dihydro-1H-inden-1-yl)-N-methyl-2-(pyridin-2-yl)-5H,6H,7H-cyclopenta[d]pyrimidin-4-amine]	6.3
O=C(NC1CCN(c2nc(-c3ccccn3)nc3scc(-c4ccccc4)c23)CC1)c1cccnc1 [Compound 191, N-{1-[5-phenyl-2-(pyridin-2-yl)thieno[2,3-d]pyrimidin-4-yl]piperidin-4-yl}pyridine-3-carboxamide]	6.2
COCCN(CCOC)c1nc(-c2ccccn2)nc2scc(-c3ccccc3)c12 [Compound 211, N,N-bis(2-methoxyethyl)-5-phenyl-2-(pyridin-2-yl)thieno[2,3-d]pyrimidin-4-amine]	6.7
CN(CCO)c1nc(-c2ccccn2)nc2sc(-c3ccccc3)cc12 [Compound 223, 2-{methyl[6-phenyl-2-(pyridin-2-yl)thieno[2,3-d]pyrimidin-4-yl]amino}ethan-1-ol]	5.6
c1ccc(-c2csc3nc(-c4ccccn4)nc(N4CCOCC4)c23)cc1 [Compound 208, 4-[5-phenyl-2-(pyridin-2-yl)thieno[2,3-d]pyrimidin-4-yl]morpholine]	5.9
COCCN(C)c1nc(-c2ccccn2)nc2sc(C)c(C)c12 [Compound 179, N-(2-methoxyethyl)-N,5,6-trimethyl-2-(pyridin-2-yl)thieno[2,3-d]pyrimidin-4-amine]	6.9
CNC(=O)CN(C)c1nc(-c2ccccn2)nc2sc(-c3ccccc3)cc12 [Compound 239, N-methyl-2-{methyl[6-phenyl-2-(pyridin-2-yl)thieno[2,3-d]pyrimidin-4-yl]amino}acetamide]	5.8

Compound	pEC50
COc1ccc(NC(=O)CN(C)c2nc(-c3cc4cn[nH]c4cn3)nc3c2CCC3)nc1 [Compound 334, N-(5-methoxypyridin-2-yl)-2-[methyl(2-{1H-pyrazolo[3,4-c]pyridin-5-yl}-5H,6H,7H-cyclopenta[d]pyrimidin-4-yl)amino]acetamide]	7.5
O=C(CNc1nc(-c2ccccn2)nc2scc(-c3ccccc3)c12)NC1CC1 [Compound 218, N-cyclopropyl-2-{[5-phenyl-2-(pyridin-2-yl)thieno[2,3-d]pyrimidin-4-yl]amino}acetamide]	5.5
CN(CC(=O)NC(C)(C)C)c1nc(-c2cccnn2)nc2c1CCC2 [Compound 175, N-tert-butyl-2-{methyl[2-(pyridazin-3-yl)-5H,6H,7H-cyclopenta[d]pyrimidin-4-yl]amino}acetamide]	<5.0
COc1ccnc(-c2nc3c(c(N(C)CC(=O)N[C@H]4CCC[C@@H]4O)n2)CCC3)c1 (single isomer, unassigned) [Compound 173]	6.8
Cc1sc2nc(-c3ccccn3)nc(N(C)CC(=O)Nc3ccccc3)c2c1C [Compound 182, 2-{[5,6-dimethyl-2-(pyridin-2-yl)thieno[2,3-d]pyrimidin-4-yl](methyl)amino}-N-phenylacetamide]	7
CCNC(=O)CN(C)c1nc(-c2ccccn2)nc2sc(-c3ccccc3)cc12 [Compound 240, N-ethyl-2-{methyl[6-phenyl-2-(pyridin-2-yl)thieno[2,3-d]pyrimidin-4-yl]amino}acetamide]	<5.0
CC(C)[C@@H](C(=O)Nc1cnn(C)c1)N(C)c1nc(-c2ccccn2)nc2c1CCC2 (single isomer, unassigned) [Compound 318]	7.2
NC(=O)NCCCCNc1nc(-c2ccccn2)nc2scc(-c3ccccc3)c12 [Compound 220, (4-{[5-phenyl-2-(pyridin-2-yl)thieno[2,3-d]pyrimidin-4-yl]amino}butyl)urea]	6
O=C1CCN(c2nc(-c3ccccn3)nc3scc(-c4ccccc4)c23)CC1 [Compound 221, 1-[5-phenyl-2-(pyridin-2-yl)thieno[2,3-d]pyrimidin-4-yl]piperidin-4-one]	6
CCN(CC)CCCNc1nc(-c2ccccn2)nc2scc(-c3ccccc3)c12 [Compound 202, N-[3-(diethylamino)propyl]-5-phenyl-2-(pyridin-2-yl)thieno[2,3-d]pyrimidin-4-amine]	5.7
CN(C)CCOc1ccnc(-c2nc3c(c(N(C)CC(=O)NC(C)(C)C)n2)CCC3)c1 [Compound 417, N-tert-butyl-2-[(2-{4-[2-(dimethylamino)ethoxy]pyridin-2-yl}-5H,6H,7H-cyclopenta[d]pyrimidin-4-yl)(methyl)amino]acetamide]	7.7
Cc1sc2nc(-c3ccccn3)nc(N(C)CC(=O)N(C)C)c2c1C [Compound 184, 2-{[5,6-dimethyl-2-(pyridin-2-yl)thieno[2,3-d]pyrimidin-4-yl](methyl)amino}-N,N-dimethylacetamide]	6.9
COc1ccnc(-c2nc3c(c(N(C)CC(=O)N[C@H]4CCC[C@H]4O)n2)CCC3)c1 (single isomer, unassigned) [Compound 171]	7.2
COCC(C)Nc1nc(-c2ccccn2)nc2sc(C)c(-c3ccccc3)c12 (centres unmarked) [Compound 209, N-(1-methoxypropan-2-yl)-6-methyl-5-phenyl-2-(pyridin-2-yl)thieno[2,3-d]pyrimidin-4-amine]	6
CCN(CCO)c1nc(-c2ccccn2)nc2sc(C)c(-c3ccccc3)c12 [Compound 244, 2-{ethyl[6-methyl-5-phenyl-2-(pyridin-2-yl)thieno[2,3-d]pyrimidin-4-yl]amino}ethan-1-ol]	5.4
COCCNc1nc(-c2ccccn2)nc2scc(-c3ccccc3)c12 [Compound 212, N-(2-methoxyethyl)-5-phenyl-2-(pyridin-2-yl)thieno[2,3-d]pyrimidin-4-amine]	5.9
CC1CC(=O)NCCN1c1nc(-c2ccccn2)nc2scc(-c3ccccc3)c12 (centres unmarked) [Compound 245, 7-methyl-1-[5-phenyl-2-(pyridin-2-yl)thieno[2,3-d]pyrimidin-4-yl]-1,4-diazepan-5-one]	5.5
